Measurements reported in patent publication US6376469B1, “Crystalline amrubicin hydrochloride” (Sumitomo Pharmaceuticals Company, Limited, priority 1997, dated 2002).

Experiment: Preservation stability of crystalline amrubicin hydrochlorides (80° C., 24 hours, HPLC)
Format: physicochemical
Details: for remaining amount (%): crystals kept at 80° C. for 24 hours, measured by high performance liquid chromatography, amount at the starting time defined as 100%, hydrochloride
Experimental: Preservation stability of crystalline amrubicin hydrochlorides
β-Type crystalline amrubicin hydrochloride obtained in Example 1 and α-type crystalline amrubicin hydrochloride obtained in Reference example 1 were each kept at a temperature of 80° C. for 24 hours. Thereafter, the remaining amount of crystals were measured using high performance liquid chromatography. The amount at the starting time is defined as 100%.

CC(=O)[C@]1(N)Cc2c(O)c3c(c(O)c2[C@@H](OC2CC(O)C(O)CO2)C1)C(=O)c1ccccc1C3=O.Cl (stereo partly drawn) [α-type crystalline, (7S,9S)-9-acetyl-9-amino-7-[(2-deoxy-β-D-erythro-pentapyranosyl)oxy]-7,8,9, 10-tetrahydro-6,11-dihydroxy-5,12-naphthacenedione hydrochloride, reference compound]
remaining amount (%): 92.2%

CC(=O)[C@]1(N)Cc2c(O)c3c(c(O)c2[C@@H](OC2CC(O)C(O)CO2)C1)C(=O)c1ccccc1C3=O.Cl (stereo partly drawn) [β-type crystalline, (7S,9S)-9-acetyl-9-amino-7-[(2-deoxy-β-D-erythro-pentapyranosyl)oxy]-7,8,9, 10-tetrahydro-6,11-dihydroxy-5,12-naphthacenedione hydrochloride]
thermal stability (comparison of crystal forms) (conclusion from Table 2, 80° C. for 24 hours): higher thermal stability than α-type crystalline amrubicin hydrochloride
remaining amount (%): 100.4%
